Assay results: PubChem BioAssay (NCI)
Several values for one entry are separate records, joined by “and”; a condition that tells them apart may be missing. Equal values may be shown once.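 A five-concentration, 48-hour dose response in 96-well plates underlies each endpoint, interpolated linearly between surrounding concentrations. GI50: concentration for 50% inhibition of growth. TGI: total growth inhibition.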

Columns and labels:
Assay in all cases: DTP human tumour cell line panel, 48 h
NCI-H522 lung = test system: NCI-H522 lung
PC-3 prostate = test system: PC-3 prostate
MOLT-4 leukemia = test system: MOLT-4 leukemia
UACC-62 melanoma = test system: UACC-62 melanoma
A498 renal = test system: A498 renal
SR leukemia = test system: SR leukemia
SK-OV-3 ovarian = test system: SK-OV-3 ovarian
SF-295 CNS = test system: SF-295 CNS
IGROV1 ovarian = test system: IGROV1 ovarian
KM12 colon = test system: KM12 colon

With `COC(=O)[C@@H](C)C[C@H](Cc1ccccc1)NC(=O)c1csc([C@@H](C[C@H](C(C)C)N(C)C(=O)C2(NC(=O)[C@H]3CCCCN3C)CCC2)OC(C)=O)n1` the GI50 (NCI-H522 lung) was 1.65 nM, the GI50 (PC-3 prostate) was 4.06 nM and 2.5 nM and the TGI (PC-3 prostate) was greater than 25000 nM. For the same compound, the GI50 (MOLT-4 leukemia) was 10.7 nM and 7.14 nM, the TGI (MOLT-4 leukemia) was greater than 25000 nM and the GI50 (UACC-62 melanoma) was 2.44 nM and 2.5 nM. For the same compound, the TGI (UACC-62 melanoma) was greater than 25000 nM, the GI50 (A498 renal) was 16.4 nM and 5.48 nM and the TGI (A498 renal) was 87.4 nM. The GI50 (SR leukemia) was 0.495 nM and 2.5 nM, the TGI (SR leukemia) was greater than 25000 nM and the GI50 (SK-OV-3 ovarian) was 15.6 nM and 5.04 nM. The TGI (SK-OV-3 ovarian) was greater than 25000 nM, the GI50 (SF-295 CNS) was 16.9 nM and 4.04 nM and the TGI (SF-295 CNS) was greater than 25000 nM. The GI50 (IGROV1 ovarian) was 0.863 nM and 2.5 nM, the TGI (IGROV1 ovarian) was greater than 25000 nM and the GI50 (KM12 colon) was 3.19 nM and 5.22 nM. For the same compound, the TGI (KM12 colon) was greater than 25000 nM.

`O=C(Nc1ccc(I)cc1)c1cccc([N+](=O)[O-])c1O` showed a GI50 (NCI-H522 lung) of 2610 nM, a TGI (NCI-H522 lung) of 31100 nM and a GI50 (PC-3 prostate) of 2720 nM. For the same compound, the TGI (PC-3 prostate) was 14600 nM, the GI50 (MOLT-4 leukemia) was 3380 nM and the TGI (MOLT-4 leukemia) was 92300 nM. The GI50 (UACC-62 melanoma) was 3770 nM, the TGI (UACC-62 melanoma) was 24000 nM and the GI50 (A498 renal) was 1650 nM. The TGI (A498 renal) was 6550 nM, the GI50 (SR leukemia) was 2870 nM and the TGI (SR leukemia) was 19800 nM. For the same compound, the GI50 (SK-OV-3 ovarian) was 3050 nM, the TGI (SK-OV-3 ovarian) was 44900 nM and the GI50 (SF-295 CNS) was 2390 nM. The TGI (SF-295 CNS) was 11300 nM, the GI50 (IGROV1 ovarian) was 6150 nM and the TGI (IGROV1 ovarian) was greater than 100000 nM. The GI50 (KM12 colon) was 4050 nM and the TGI (KM12 colon) was greater than 100000 nM.

`Cc1cc(C(O)(c2ccc(Nc3ccccc3)cc2)c2ccc(Nc3ccc(S(=O)(=O)O)cc3)cc2)ccc1N` (stereo not drawn) showed a GI50 (NCI-H522 lung) of 1260 nM, a TGI (NCI-H522 lung) of 4440 nM and a GI50 (PC-3 prostate) of 1310 nM. It also gave a TGI (PC-3 prostate) of 6180 nM, a GI50 (MOLT-4 leukemia) of 445 nM and a TGI (MOLT-4 leukemia) greater than 100000 nM. It also gave a GI50 (UACC-62 melanoma) of 499 nM, a TGI (UACC-62 melanoma) of 2120 nM and a GI50 (A498 renal) of 1580 nM. The TGI (A498 renal) was 3510 nM, the GI50 (SR leukemia) was 713 nM and the TGI (SR leukemia) was greater than 100000 nM. For the same compound, the GI50 (SK-OV-3 ovarian) was 2530 nM, the TGI (SK-OV-3 ovarian) was 5920 nM and the GI50 (SF-295 CNS) was 1690 nM. It also gave a TGI (SF-295 CNS) of 3250 nM, a GI50 (IGROV1 ovarian) of 1520 nM and a TGI (IGROV1 ovarian) of 3400 nM. The GI50 (KM12 colon) was 1490 nM and the TGI (KM12 colon) was 3280 nM.

`NS(=O)(=O)c1ccc(N=C2C(=O)Nc3ccccc32)cc1` showed a TGI (NCI-H522 lung) greater than 100000 nM, a TGI (PC-3 prostate) greater than 100000 nM and a TGI (MOLT-4 leukemia) greater than 100000 nM. The TGI (UACC-62 melanoma) was greater than 100000 nM, the TGI (A498 renal) was greater than 100000 nM and the TGI (SR leukemia) was greater than 100000 nM. The TGI (SK-OV-3 ovarian) was greater than 100000 nM, the TGI (SF-295 CNS) was greater than 100000 nM and the TGI (IGROV1 ovarian) was greater than 100000 nM. It also gave a TGI (KM12 colon) greater than 100000 nM.

`O=C(Cc1ccc(Nc2ccnc(C(F)(F)F)c2)cc1)N/N=C/c1ccccc1O` was tested, and the GI50 (NCI-H522 lung) was 8960 nM, the TGI (NCI-H522 lung) was 35900 nM and the GI50 (PC-3 prostate) was 1090 nM. It also gave a TGI (PC-3 prostate) of 16600 nM, a GI50 (MOLT-4 leukemia) of 904 nM and a TGI (MOLT-4 leukemia) of 7790 nM. The GI50 (UACC-62 melanoma) was 2170 nM, the TGI (UACC-62 melanoma) was 21500 nM and the GI50 (A498 renal) was 11200 nM. It also gave a TGI (A498 renal) greater than 57900 nM, a GI50 (SR leukemia) of 352 nM and a TGI (SR leukemia) of 4610 nM. The GI50 (SK-OV-3 ovarian) was 3130 nM, the TGI (SK-OV-3 ovarian) was greater than 68500 nM and the GI50 (SF-295 CNS) was 2720 nM. For the same compound, the TGI (SF-295 CNS) was 38000 nM, the GI50 (IGROV1 ovarian) was 2350 nM and the TGI (IGROV1 ovarian) was greater than 24700 nM. For the same compound, the GI50 (KM12 colon) was 2090 nM and the TGI (KM12 colon) was 15500 nM.

With `CCN1C(=O)N(CC)C2C1NC(=S)N2/N=C/C=C/c1ccccc1OC` (stereo not drawn) the GI50 (NCI-H522 lung) was 25.3 nM, the GI50 (PC-3 prostate) was 41.1 nM and the TGI (PC-3 prostate) was greater than 100000 nM. For the same compound, the GI50 (MOLT-4 leukemia) was 42.7 nM, the TGI (MOLT-4 leukemia) was greater than 100000 nM and the GI50 (UACC-62 melanoma) was 45.8 nM. It also gave a TGI (UACC-62 melanoma) greater than 100000 nM, a GI50 (A498 renal) of 29.5 nM and a TGI (A498 renal) of 88.8 nM. For the same compound, the GI50 (SR leukemia) was 38.7 nM, the TGI (SR leukemia) was greater than 100000 nM and the GI50 (SK-OV-3 ovarian) was 36.8 nM. For the same compound, the TGI (SK-OV-3 ovarian) was greater than 100000 nM, the GI50 (SF-295 CNS) was 30.6 nM and the TGI (SF-295 CNS) was greater than 100000 nM. For the same compound, the GI50 (IGROV1 ovarian) was 41.1 nM, the TGI (IGROV1 ovarian) was greater than 100000 nM and the GI50 (KM12 colon) was 40.6 nM. It also gave a TGI (KM12 colon) greater than 100000 nM.

With `Oc1ccc(Cc2ccc(O)c(C3CC(c4ccc(Cl)cc4)=NN3)c2)cc1C1CC(c2ccc(Cl)cc2)=NN1` (stereo not drawn) the GI50 (NCI-H522 lung) was 2560 nM, the TGI (NCI-H522 lung) was 9880 nM and the GI50 (PC-3 prostate) was 3670 nM. It also gave a TGI (PC-3 prostate) greater than 100000 nM, a GI50 (MOLT-4 leukemia) of 2840 nM and a TGI (MOLT-4 leukemia) greater than 100000 nM. The GI50 (UACC-62 melanoma) was 3140 nM, the TGI (UACC-62 melanoma) was 13400 nM and the GI50 (A498 renal) was 590 nM. The TGI (A498 renal) was greater than 34300 nM, the GI50 (SR leukemia) was 2770 nM and the TGI (SR leukemia) was greater than 100000 nM. The GI50 (SK-OV-3 ovarian) was 3610 nM, the TGI (SK-OV-3 ovarian) was greater than 100000 nM and the GI50 (SF-295 CNS) was 2390 nM. The TGI (SF-295 CNS) was greater than 42900 nM, the GI50 (IGROV1 ovarian) was 3690 nM and the TGI (IGROV1 ovarian) was greater than 72300 nM. It also gave a GI50 (KM12 colon) of 3340 nM and a TGI (KM12 colon) greater than 67800 nM.
